Experimental findings from ChEMBL document CHEMBL5465560, “Selectivity Literature for EUbOPEN Chemogenomic Library” (2024) are described below.

By IC50 is commonly meant the concentration that gives 50% inhibition. A high value points to a need for much substance.

The target of assay [1] is Mitogen-activated protein kinase kinase kinase 11 (Homo sapiens) (UniProt Q16584). Kind of assay: Selectivity interaction (Kinase panel (Eurofins)) EUB0001564a MAP3K11. The conditions noted are these: at 1 µM.
Assay [2] addresses T1, 3-phosphoinositide-dependent protein kinase 1 (Homo sapiens) (UniProt O15530).
T1 sequence (whole entry): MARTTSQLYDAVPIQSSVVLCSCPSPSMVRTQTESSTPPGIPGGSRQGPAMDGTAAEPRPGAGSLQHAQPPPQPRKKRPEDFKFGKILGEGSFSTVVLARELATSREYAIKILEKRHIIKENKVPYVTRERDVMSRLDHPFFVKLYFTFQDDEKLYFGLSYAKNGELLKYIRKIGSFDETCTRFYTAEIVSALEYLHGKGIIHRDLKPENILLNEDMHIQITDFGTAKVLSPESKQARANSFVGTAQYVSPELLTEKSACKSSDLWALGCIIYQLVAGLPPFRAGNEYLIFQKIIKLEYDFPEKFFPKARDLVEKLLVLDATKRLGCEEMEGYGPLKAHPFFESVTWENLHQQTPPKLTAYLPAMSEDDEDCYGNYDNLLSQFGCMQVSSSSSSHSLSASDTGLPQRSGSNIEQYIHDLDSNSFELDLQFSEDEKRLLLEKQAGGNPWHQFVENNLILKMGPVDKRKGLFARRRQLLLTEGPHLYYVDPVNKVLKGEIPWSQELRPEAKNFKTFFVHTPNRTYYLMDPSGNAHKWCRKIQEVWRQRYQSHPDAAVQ
The assay is described as follows: Selectivity interaction (KinomeScan (DiscoverX)) EUB0001619a PDPK1. The conditions noted are these: at 1 µM.

The target in assay [3] is Serine/threonine-protein kinase WNK3 (Homo sapiens) (UniProt Q9BYP7). Kind of assay: Selectivity interaction (KinomeScan (DiscoverX)) EUB0001619a WNK3. The note with it: at 1 µM.
Assay [4] concerns the target T2, Tyrosine-protein kinase TXK (Homo sapiens) (UniProt P42681).
T2 sequence (whole entry): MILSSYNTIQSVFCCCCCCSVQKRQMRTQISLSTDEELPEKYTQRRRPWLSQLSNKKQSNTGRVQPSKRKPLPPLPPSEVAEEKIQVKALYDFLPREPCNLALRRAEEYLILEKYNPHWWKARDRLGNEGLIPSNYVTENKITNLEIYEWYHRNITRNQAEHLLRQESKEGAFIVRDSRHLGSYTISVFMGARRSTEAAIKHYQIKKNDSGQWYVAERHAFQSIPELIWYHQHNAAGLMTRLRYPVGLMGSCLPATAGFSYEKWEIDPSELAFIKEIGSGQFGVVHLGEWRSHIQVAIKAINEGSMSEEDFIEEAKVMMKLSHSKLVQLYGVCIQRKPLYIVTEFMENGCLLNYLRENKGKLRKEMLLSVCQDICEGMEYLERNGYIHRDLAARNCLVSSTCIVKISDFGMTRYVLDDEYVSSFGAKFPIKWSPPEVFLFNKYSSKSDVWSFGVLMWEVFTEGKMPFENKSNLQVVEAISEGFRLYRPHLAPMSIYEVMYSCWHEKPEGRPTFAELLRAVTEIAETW
The assay is described as follows: Selectivity interaction (KinomeScan (DiscoverX)) EUB0000695a TXK. The conditions noted are these: at 100 nM.

In assay [5] the test system is Epidermal growth factor receptor (Homo sapiens), P00533 [L858R]. Kind of assay: (§1) Selectivity interaction (SelectScreen profiling (Invitrogen)) EUB0000607a EGFR. The conditions noted are these: at 2 µM.
Sequence of Epidermal growth factor receptor (Homo sapiens), P00533 [L858R] (P00533 whole entry L858R): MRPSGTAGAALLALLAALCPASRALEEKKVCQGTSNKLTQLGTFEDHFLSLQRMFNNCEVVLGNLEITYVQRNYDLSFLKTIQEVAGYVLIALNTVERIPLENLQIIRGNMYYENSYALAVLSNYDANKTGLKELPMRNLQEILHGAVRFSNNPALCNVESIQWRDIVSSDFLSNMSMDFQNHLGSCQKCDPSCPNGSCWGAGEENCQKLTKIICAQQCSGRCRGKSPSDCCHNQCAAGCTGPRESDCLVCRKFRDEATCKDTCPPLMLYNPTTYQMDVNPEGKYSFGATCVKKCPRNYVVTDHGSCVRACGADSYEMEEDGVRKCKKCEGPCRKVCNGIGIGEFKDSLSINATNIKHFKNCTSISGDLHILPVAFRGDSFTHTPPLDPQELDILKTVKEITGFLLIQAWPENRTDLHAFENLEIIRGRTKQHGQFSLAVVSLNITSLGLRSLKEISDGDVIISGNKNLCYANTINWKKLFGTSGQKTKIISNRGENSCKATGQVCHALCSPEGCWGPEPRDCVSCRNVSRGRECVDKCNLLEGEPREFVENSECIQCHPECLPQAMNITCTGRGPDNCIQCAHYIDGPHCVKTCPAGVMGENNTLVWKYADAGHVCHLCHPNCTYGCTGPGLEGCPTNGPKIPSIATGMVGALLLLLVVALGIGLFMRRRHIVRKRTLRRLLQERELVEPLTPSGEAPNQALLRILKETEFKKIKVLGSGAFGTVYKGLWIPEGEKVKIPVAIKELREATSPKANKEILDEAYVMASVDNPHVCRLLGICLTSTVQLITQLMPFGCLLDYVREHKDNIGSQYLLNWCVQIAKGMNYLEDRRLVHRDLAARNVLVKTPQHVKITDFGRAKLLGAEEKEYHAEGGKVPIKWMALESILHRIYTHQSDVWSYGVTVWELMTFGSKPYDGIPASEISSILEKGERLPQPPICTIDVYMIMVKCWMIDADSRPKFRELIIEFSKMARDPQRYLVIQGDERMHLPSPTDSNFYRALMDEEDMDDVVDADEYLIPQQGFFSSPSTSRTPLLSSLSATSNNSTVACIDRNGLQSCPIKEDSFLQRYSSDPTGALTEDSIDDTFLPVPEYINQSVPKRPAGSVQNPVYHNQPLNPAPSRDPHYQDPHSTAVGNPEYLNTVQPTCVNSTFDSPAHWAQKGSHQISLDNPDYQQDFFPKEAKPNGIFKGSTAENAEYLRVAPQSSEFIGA
For assay [6], the system named is Epidermal growth factor receptor (Homo sapiens), P00533 [L861Q]. The description is as §1. The note with it: at 2 µM.
The subject of assay [7] is Epidermal growth factor receptor (Homo sapiens), P00533 [T790M]. The assay is described as §1. The note with it: at 2 µM.
Assay [8] concerns the target Epidermal growth factor receptor (Homo sapiens, UniProt P00533). The description is as §1. The note with it: at 2 µM.
Assay [9] has as its target T2, Tyrosine-protein kinase TXK (Homo sapiens). The assay is described as follows: Selectivity interaction (KinomeScan (DiscoverX)) EUB0000607a TXK. The conditions noted are these: at 10 µM.
The subject of assay [10] is Mast/stem cell growth factor receptor Kit (Homo sapiens), P10721 [D816H]. The note with it: at 10 µM.
Assay [11] deals with Macrophage colony-stimulating factor 1 receptor (Homo sapiens) (UniProt P07333). The assay is described as follows: Selectivity interaction (KinaseProfiler screening (Millipore)) EUB0000601a CSF1R. The note with it: at 3 µM.
In assay [12] the target is PAS domain-containing serine/threonine-protein kinase (Homo sapiens) (UniProt Q96RG2). The assay is described as follows: Selectivity interaction (KinaseProfiler screening (Millipore)) EUB0000601a PASK. The conditions noted are these: at 3 µM.
Sequence of PAS domain-containing serine/threonine-protein kinase (Homo sapiens) (Q96RG2 whole entry, the tested form may be a part): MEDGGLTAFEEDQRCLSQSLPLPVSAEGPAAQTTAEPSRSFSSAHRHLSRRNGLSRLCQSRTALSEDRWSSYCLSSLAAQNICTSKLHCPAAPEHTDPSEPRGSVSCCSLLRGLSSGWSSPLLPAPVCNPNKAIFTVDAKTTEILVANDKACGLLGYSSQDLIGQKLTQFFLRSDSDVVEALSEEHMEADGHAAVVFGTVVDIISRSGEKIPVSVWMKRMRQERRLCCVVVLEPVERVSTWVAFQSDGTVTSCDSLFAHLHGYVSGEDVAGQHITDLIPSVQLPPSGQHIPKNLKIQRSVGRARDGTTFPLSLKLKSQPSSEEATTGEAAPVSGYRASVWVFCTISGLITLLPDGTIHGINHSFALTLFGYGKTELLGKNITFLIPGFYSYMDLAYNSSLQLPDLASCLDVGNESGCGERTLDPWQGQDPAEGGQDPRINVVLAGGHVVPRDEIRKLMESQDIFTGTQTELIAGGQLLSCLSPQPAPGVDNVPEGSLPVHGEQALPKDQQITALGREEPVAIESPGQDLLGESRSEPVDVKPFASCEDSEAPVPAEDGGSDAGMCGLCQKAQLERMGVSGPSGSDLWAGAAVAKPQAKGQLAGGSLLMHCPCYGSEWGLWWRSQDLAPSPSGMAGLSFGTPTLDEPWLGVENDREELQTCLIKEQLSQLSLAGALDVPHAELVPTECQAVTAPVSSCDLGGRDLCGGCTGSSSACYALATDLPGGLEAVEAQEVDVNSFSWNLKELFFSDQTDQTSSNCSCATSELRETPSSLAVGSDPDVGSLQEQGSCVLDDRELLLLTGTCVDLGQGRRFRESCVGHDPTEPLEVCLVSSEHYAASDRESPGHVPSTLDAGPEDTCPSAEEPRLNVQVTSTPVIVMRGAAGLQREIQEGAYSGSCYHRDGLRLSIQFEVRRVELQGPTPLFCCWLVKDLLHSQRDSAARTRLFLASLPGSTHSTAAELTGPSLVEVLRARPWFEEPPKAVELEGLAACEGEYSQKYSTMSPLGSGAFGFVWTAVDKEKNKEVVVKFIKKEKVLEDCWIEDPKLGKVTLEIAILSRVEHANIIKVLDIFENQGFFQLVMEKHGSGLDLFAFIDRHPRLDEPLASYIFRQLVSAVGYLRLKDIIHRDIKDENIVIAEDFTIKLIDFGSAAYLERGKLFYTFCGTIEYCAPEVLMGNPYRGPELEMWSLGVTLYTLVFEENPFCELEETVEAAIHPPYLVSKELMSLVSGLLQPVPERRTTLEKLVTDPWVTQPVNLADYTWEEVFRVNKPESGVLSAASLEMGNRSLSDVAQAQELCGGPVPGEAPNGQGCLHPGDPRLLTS
In assay [13] the target is Protein kinase C theta type (Homo sapiens, UniProt Q04759). Kind of assay: Selectivity interaction (KinomeScan (DiscoverX)) EUB0000311b PRKCQ. The note with it: at 1 µM.
Assay [14] addresses T3, Tyrosine-protein kinase ZAP-70 (Homo sapiens, UniProt P43403).
T3 sequence (P43403 whole entry): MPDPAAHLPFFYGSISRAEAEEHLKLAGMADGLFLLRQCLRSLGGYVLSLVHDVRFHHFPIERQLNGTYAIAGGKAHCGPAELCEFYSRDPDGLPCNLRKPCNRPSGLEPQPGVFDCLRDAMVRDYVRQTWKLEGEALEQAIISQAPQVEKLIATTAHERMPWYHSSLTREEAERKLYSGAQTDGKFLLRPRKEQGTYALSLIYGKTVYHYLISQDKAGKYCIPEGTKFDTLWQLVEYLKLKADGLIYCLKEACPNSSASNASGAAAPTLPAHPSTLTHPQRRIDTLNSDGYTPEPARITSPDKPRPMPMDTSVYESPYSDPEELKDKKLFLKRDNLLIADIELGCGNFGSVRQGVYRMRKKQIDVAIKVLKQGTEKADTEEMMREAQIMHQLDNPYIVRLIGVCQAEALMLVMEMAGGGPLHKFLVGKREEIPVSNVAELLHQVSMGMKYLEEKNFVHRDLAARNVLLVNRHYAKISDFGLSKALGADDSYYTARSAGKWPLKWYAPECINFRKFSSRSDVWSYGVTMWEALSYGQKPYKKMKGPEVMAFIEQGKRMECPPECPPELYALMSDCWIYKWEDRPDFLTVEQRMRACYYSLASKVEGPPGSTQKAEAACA
The assay is described as follows: Selectivity interaction (Kinase panel (33PanQinase(R) Activity Assay)) EUB0000877a ZAP70.

Assay [15] concerns the target Hepatocyte growth factor-like protein (Homo sapiens) (UniProt P26927). The assay is described as follows: Selectivity interaction (KinomeScan (DiscoverX)) EUB0000655a MST1. The conditions noted are these: at 10 µM.
Assay [16] has as its target Serine/threonine-protein kinase tousled-like 2 (Homo sapiens) (UniProt Q86UE8). The assay is described as follows: Selectivity interaction (KinomeScan (DiscoverX)) EUB0000655a TLK2. The conditions noted are these: at 10 µM.
The target in assay [17] is Calcium/calmodulin-dependent protein kinase type II subunit delta (Homo sapiens) (UniProt Q13557). The assay is described as follows: Selectivity interaction (KinomeScan (DiscoverX)) EUB0000092b CAMK2D. The note with it: at 10 µM.
Assay [18] deals with Proto-oncogene tyrosine-protein kinase Src (Homo sapiens, UniProt P12931). Kind of assay: Selectivity interaction (KinomeScan (DiscoverX)) EUB0000092b SRC. The note with it: at 10 µM.
Sequence of Proto-oncogene tyrosine-protein kinase Src (P12931 2-536 limits assumed): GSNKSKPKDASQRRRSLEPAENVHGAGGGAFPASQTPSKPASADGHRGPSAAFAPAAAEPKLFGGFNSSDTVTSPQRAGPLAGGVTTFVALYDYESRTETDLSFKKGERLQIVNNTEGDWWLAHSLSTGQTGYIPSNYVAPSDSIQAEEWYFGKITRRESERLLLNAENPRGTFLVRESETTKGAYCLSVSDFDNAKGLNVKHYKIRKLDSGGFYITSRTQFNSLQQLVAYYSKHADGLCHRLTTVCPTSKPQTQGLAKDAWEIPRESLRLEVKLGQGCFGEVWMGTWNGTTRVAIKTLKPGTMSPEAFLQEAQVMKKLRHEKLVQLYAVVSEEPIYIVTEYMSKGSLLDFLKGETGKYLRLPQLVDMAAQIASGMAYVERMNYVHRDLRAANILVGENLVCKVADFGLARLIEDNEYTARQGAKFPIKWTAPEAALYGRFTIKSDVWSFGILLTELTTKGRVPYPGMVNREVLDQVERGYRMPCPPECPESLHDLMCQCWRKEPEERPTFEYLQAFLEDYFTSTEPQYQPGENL

Sequence of Epidermal growth factor receptor (Homo sapiens), P00533 [T790M] (P00533 whole entry T790M): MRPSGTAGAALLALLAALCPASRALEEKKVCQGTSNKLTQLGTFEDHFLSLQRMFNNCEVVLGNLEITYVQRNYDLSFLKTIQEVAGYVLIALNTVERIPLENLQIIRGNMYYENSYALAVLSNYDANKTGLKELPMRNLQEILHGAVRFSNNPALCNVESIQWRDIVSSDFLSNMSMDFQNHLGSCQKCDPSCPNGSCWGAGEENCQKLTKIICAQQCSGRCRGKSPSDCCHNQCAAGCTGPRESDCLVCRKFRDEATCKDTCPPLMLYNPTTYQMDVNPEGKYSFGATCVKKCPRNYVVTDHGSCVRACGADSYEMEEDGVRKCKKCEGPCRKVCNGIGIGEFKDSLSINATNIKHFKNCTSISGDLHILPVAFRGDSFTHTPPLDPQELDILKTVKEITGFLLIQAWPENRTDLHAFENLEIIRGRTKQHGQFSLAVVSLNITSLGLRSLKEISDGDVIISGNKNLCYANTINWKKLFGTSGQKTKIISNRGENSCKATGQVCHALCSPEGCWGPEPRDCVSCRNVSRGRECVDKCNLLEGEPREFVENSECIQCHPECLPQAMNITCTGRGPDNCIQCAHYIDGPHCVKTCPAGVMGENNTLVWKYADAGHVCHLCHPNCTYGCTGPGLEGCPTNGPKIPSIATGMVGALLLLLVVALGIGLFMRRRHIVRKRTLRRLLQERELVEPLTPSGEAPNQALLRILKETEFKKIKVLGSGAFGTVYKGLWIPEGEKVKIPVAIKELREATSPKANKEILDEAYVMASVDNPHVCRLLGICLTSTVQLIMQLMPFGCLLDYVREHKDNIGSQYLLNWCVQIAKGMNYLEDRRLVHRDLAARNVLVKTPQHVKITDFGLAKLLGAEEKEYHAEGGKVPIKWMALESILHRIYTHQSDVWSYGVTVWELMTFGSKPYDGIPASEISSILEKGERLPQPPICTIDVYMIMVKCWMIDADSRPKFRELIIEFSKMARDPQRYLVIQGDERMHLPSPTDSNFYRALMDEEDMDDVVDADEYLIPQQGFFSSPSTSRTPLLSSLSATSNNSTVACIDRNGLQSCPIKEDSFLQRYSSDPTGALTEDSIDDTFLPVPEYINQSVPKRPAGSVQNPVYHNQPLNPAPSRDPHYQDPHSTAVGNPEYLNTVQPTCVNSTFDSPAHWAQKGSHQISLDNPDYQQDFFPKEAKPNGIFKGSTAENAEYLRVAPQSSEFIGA
Sequence of Serine/threonine-protein kinase tousled-like 2 (Homo sapiens) (Q86UE8 whole entry, looked up): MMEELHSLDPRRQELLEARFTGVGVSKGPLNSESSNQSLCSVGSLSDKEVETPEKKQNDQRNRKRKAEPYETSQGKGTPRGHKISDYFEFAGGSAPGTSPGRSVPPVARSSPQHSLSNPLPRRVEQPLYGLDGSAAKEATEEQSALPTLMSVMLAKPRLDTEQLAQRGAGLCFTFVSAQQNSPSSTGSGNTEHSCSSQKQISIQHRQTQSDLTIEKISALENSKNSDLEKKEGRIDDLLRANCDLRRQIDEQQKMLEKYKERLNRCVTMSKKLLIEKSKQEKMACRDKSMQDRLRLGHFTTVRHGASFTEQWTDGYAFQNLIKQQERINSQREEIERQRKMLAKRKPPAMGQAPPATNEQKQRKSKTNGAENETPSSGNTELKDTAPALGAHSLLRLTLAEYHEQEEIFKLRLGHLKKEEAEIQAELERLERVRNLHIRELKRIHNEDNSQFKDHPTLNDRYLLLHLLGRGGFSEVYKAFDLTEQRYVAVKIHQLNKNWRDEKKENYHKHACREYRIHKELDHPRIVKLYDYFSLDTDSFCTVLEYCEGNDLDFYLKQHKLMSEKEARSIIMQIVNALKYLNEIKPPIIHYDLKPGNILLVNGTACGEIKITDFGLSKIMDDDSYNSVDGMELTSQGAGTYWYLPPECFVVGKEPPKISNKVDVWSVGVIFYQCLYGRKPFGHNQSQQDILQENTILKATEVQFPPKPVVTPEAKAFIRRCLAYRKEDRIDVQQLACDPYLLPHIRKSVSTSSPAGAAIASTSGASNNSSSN

For the compound `CC[C@@H](Nc1c(C#N)c(-c2ccc(-c3cccc(C)c3F)cc2)nc2cnccc12)C(=O)O` [BAY-091], in [1], the % of inhibition was 21.1%.
`N#Cc1cccc(-c2c[nH]c3ncnc(N4CCOCC4)c23)c1`: the % of control in assay [2] and in [3] was 100% in each case.
On to `Cc1cc(F)c(C(=O)Nc2cccc(-c3nncn3C(C)C)n2)cc1-n1cnc(C2CC2)c1`, for which the % of control in assay [4] amounted to 98%.
As to `CNC(=O)Nc1ccc(-c2nc(N3CC4CCC(C3)O4)c3cnn(C4CCC5(CC4)OCCO5)c3n2)cc1`, the % of inhibition in assay [5] was 3%; in assay [6] it was -1%; in assay [7], 2%; in assay [8], 1%. Moreover, the % of control in assay [9] was determined as 94%.
In the case of `Cc1cc([C@@H](C)Nc2ccccc2C(=O)O)c2nc(N3CCOCC3)cc(=O)n2c1` [AZD-6482], in assay [10], the % of control worked out at 88%.
Consider `CCc1cc(Nc2nccc(-c3c(-c4ccc(OC)c(C(=O)Nc5c(F)cccc5F)c4)nc4ccccn34)n2)c(OC)cc1N1CCC(N2CCN(S(C)(=O)=O)CC2)CC1`, for which the % of inhibition came out at 50% in assay [11] and 65% in assay [12].
The compound `CCc1ccccc1C(=O)Nc1n[nH]c2c(C)c(F)c(C3C(C#N)=C(C)N(C)C(C)=C3C#N)cc12` [BAY-3827] had a % of control in assay [13] of 15%.
Consider `CCC(=O)N1CC[C@H](Nc2ncnc3c2CN(c2cnc(OC)c(C(F)(F)F)c2)CC3)C1` [LENIOLISIB], for which the concentration for half-maximal inhibition (IC50) in assay [14] was more than 10 µM.
As to `CN(C)CCOc1ccc(-c2nc(-c3ccncc3)c(-c3ccc4c(c3)CC/C4=N\O)[nH]2)cc1`, the % of control was found to be 100% in assay [15] and 86% in assay [16].
For `CCC(=O)N1CCN(c2ccc(-n3c(=O)ccc4cnc5ccc(-c6cnc7ccccc7c6)cc5c43)cc2C(F)(F)F)CC1`, the % of control was determined as 72% in assay [17] and 95% in assay [18].
